Results published in patent US5369111A, “Modulator agent and use thereof” (University of Vermont, priority 1992, dated 1994).

Tests used:
RCC-2 cells = assay: Inhibition of population growth (cytotoxicity), rat colon adenocarcinoma RCC-2; format: cell-based; settings: Rattus norvegicus; RCC-2, 72 h
From the text: (§1) The analogs were examined in a panel of tumor cell lines of both intrinsic and acquired drug resistance, as described in Table 1. The rat colon adenocarcinoma cell lines RCC-2 and RCC-5 (ref. 13) were maintained in Ham's F12 medium supplemented with 5% heat-inactivated, fetal bovine serum (Sterile Systems. Hyclone, Logan, Utah). The two rat colon cancer cell lines differ in their degree of cellular differentiation; whereas the RCC-2 cell line is undifferentiated, the RCC-5 cell line is highly mucinous. The human epidermoid carcinoma cell line KB-3-1 and its MDR variant KB-Vl, selected by VBL treatment (ref. 14; courtesy of M. Gottesman. National Cancer Institute), was maintained in DMEM medium supplemented with 10%, heat-inactivated, fetal bovine serum. The murine sarcoma cell line […] and its MDR strains A3 and A10 selected by ADM treatment (ref. 15; courtesy of T. Tritton, Dept. Pharmacology, Univ. Vermont). were maintained in DMEM medium supplemented with 10% heat-inactivated, horse serum (Hazelton Biolog. Lenexa, Kans.). Stock cultures were subcultured twice weekly upon reaching the late exponential phase of population growth: population doubling times were 18-24 h. Antibiotics were not used in stock or experimental cultures. The MDR cell strains were grown in drug-free media for 48 h prior to experimental use.
(§2) Mid-exponential cultures were used for all assays. The RCC-2 and RCC-5 cell lines were seeded into 24-well plates at 2×10^4 cells/well and allowed to attach to the substratum for 16-18 h prior to treatment. The S180 cell lines were seeded into culture tubes at 1×10^5 cells/ml and treated immediately. Cytotoxicity was determined by quantitation of population growth after 72 h incubation by electronic particle counter (Coulter Electronics, Hialeah, Fla.). The human tumor cell lines were used in a clonogenic assay for cytotoxicity. Cells were seeded at 300 cells/dish, incubated overnight and then treated. Colonies were scored 7-11 days later. In all assays of analog modulation of drug sensitivity, the analog was added minutes prior to the addition of cytotoxic drug.

RCC-5 cells = assay: Inhibition of population growth (cytotoxicity), rat colon adenocarcinoma RCC-5; format: cell-based; settings: Rattus norvegicus; RCC-5, 72 h
From the text: as §1, §2

S180 cells, parental = assay: Inhibition of population growth (cytotoxicity), S180 sarcoma, parental; format: cell-based, mouse; settings: Mus musculus; for IC70: S-180, 72 h, parental S180; for IC50: S-180
From the text: as §1, §2

KB-3-1 cells = assay: Clonogenic assay for cytotoxicity, KB-3-1 parental; format: cell-based; settings: Homo sapiens
From the text: as §1, §2

S180/A3 cells = assay: Inhibition of population growth (cytotoxicity), MDR strain S180/A3; format: cell-based, mouse
From the text: as §1, §2

S180/A10 cells = assay: Inhibition of population growth (cytotoxicity), MDR strain S180/A10; format: cell-based, mouse; settings: 4320 min
From the text: as §1, §2

KB-V1 cells = assay: Clonogenic assay for cytotoxicity, MDR variant KB-V1; format: cell-based, human; settings: for Relative resistance: IC50 in KB-V1 divided by IC50 of parental, Table I
From the text: as §1, §2
FIG. 10 represents the potency of the analog C-20'-deoxy deethyl vincovaline as a modulator of the drug sensitivity of various cell lines: the parental S180 cell line: the two rat colon cancer cell lines, RCC-2 and RCC-5; and the human epidermoid carcinoma cell line KB-3-1 and its MDR cell strain KB-V1, which expresses very high levels of drug resistance (200-500 fold). The enhancement of sensitivity was calculated as the sensitivity index =IC50 of the drug alone divided by the IC50 of the drug+analog. The drugs examined were ADM (o), VBL (Δ), and VCR (.quadrature.). The cytotoxicity of drug and analog treatments in the KB cell lines were measured by cloning efficiencies. The arrows denote the non-toxic concentration limit of the analog in each cell line.

P388 R cells = assay: Viability (MTT test) of P388 R cells; format: cell-based, mouse; settings: for resistance of P388 R cells to cytotoxic activity of the drug: FIGS. 12 to 14
From the text: The sensitization of C-20'-deoxy C-20'-deethyl vincovaline (D-DEV) has been tested on sensitive and resistants P388 cell lines originating from mouse lympnoma.
The resistance to anticancerous drug has been induced on DBA2 mouses bearing P388 cells ascites and maintained by treatment with adryamycin.
This study has been carried out at least in triplicate.

[1] = A3, IC50 resistant / IC50 parental, Table II, 4320 min
[2] = IC50 in S180/A3 divided by IC50 of parental, Table I
[3] = A10, IC50 resistant / IC50 parental, Table II
[4] = IC50 in S180/A10 divided by IC50 of parental, Table I

Structure (SMILES)	IC50 (RCC-2 cells) [nM]	IC50 (RCC-5 cells) [nM]	IC70 (S180 cells, parental) [nM]	IC50 (S180 cells, parental; S180, parental, Table II) [nM]	IC50 (S180 cells, parental; S180 parental, 72 h, Table I) [nM]	IC50 (KB-3-1 cells) [nM]	Relative resistance (S180/A3 cells; [1])	Relative resistance (S180/A3 cells; [2])	Relative resistance (S180/A10 cells; [3])	Relative resistance (S180/A10 cells; [4])	resistance of KB-V1 to the drug (KB-V1 cells) [fold]	Relative resistance (KB-V1 cells)	vincristine cytotoxicity towards P388 R cells (P388 R cells; 0.1 nM to 0.054 μM, 24 hours)	resistance of P388 R cells to cytotoxic activity of the drug (P388 R cells)	adriamycin cytotoxicity in P388 R cells (P388 R cells; 0.17 to 4.31 μM, 37° C., 24 and 48 hours)	vinblastine cytotoxicity towards P388 R cells (P388 R cells; 0.00055 to 0.11 μM, 24 hours)
CC[C@]1(O)C[C@H]2CN(CCc3c([nH]c4ccccc34)[C@@](C(=O)OC)(c3cc4c(cc3OC)N(C=O)[C@H]3[C@@](O)(C(=O)OC)[C@H](OC(C)=O)[C@]5(CC)C=CCN6CC[C@]43[C@@H]65)C2)C1 [VCR, vincristine]	5	15	45	30	30	2	10	7	20	17	≥ 200	400	lack of vincristine cytotoxicity	resistance of P388 R cells to cytotoxic activity	–	–
COc1cccc2c1C(=O)c1c(O)c3c(c(O)c1C2=O)C[C@@](O)(C(=O)CO)C[C@@H]3O[C@H]1C[C@H](N)[C@H](O)[C@H](C)O1 [ADM, adriamycin]	10	50	200	100	100	15	15	15	90	90	≥ 200	500	–	resistance of P388 R cells to cytotoxic activity	lack of adriamycin cytotoxicity	–
CC[C@]1(O)C[C@@H]2CN(CCc3c([nH]c4ccccc34)[C@@](C(=O)OC)(c3cc4c(cc3OC)N(C)[C@H]3[C@@](O)(C(=O)OC)[C@H](OC(C)=O)[C@]5(CC)C=CCN6CC[C@]43[C@@H]65)C2)C1 [VBL, vinblastine]	3	8	15	8	8	1	3	3	15	15	≥ 200	200	–	resistance of P388 R cells to cytotoxic activity	–	lack of vinblastine cytotoxicity
